Test systems include SR leukemia; HCC-2998 colon; OVCAR-4 ovarian; MOLT-4 leukemia; SK-MEL-5 melanoma; HCT-116 colon; RXF 393 renal; MALME-3M melanoma; UO-31 renal; A498 renal.
Experiment in all cases: growth of human tumour cells (NCI), 48 h

Molecules are shown by their SMILES. “And” between values parts separate entries of the source, which are not always exact repeats. Identical values can stand only once.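 Test compounds were applied to cells in 96-well plates for 48 hours at 5 doses. Here, GI50 denotes the concentration required for 50% inhibition of growth. The concentration for full growth arrest is given as TGI.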

Regarding `CC1(C)OC2C(=O)OC(COCc3ccccc3)C2O1` (stereo not drawn), the TGI in the assay on SR leukemia, in the assay with HCC-2998 colon, in the assay with OVCAR-4 ovarian, in the assay with MOLT-4 leukemia, with SK-MEL-5 melanoma and in the assay with HCT-116 colon was > 100 µM in each case. The TGI with RXF 393 renal, with MALME-3M melanoma, in the assay on UO-31 renal and in the assay with A498 renal was > 100 µM each time.
Consider `CCCCS(=N)(=O)CC[C@H](N)C(=O)O` (stereo partly drawn), for which the GI50 with SR leukemia is 3980 µM; in the assay with HCC-2998 colon, > 10000 µM; in the assay on OVCAR-4 ovarian, 13.4 µM; in the assay on MOLT-4 leukemia it was 1540 µM; in the assay on SK-MEL-5 melanoma, > 10000 µM; with HCT-116 colon it was > 9060 µM. Moreover, the GI50 was > 10000 µM in the assay on RXF 393 renal, > 8490 µM with MALME-3M melanoma, > 10000 µM in the assay on UO-31 renal and > 10000 µM in the assay with A498 renal. Also, the TGI in the assay on SR leukemia was 5000 µM and > 10000 µM; with HCC-2998 colon it was > 10000 µM; in the assay on MOLT-4 leukemia it was 3810 µM and > 10000 µM; in the assay on SK-MEL-5 melanoma, > 10000 µM; with HCT-116 colon, > 10000 µM; in the assay on RXF 393 renal, > 10000 µM. The TGI in the assay on MALME-3M melanoma was > 10000 µM; in the assay on UO-31 renal, 2700 µM and > 10000 µM; in the assay on A498 renal, 5000 µM and > 10000 µM.
Regarding `CC1=C(N2CC2)C(=O)c2nc3n(c2C1=O)CCC3O` (stereo not drawn), the TGI with SR leukemia was determined as 35.6 µM; with HCC-2998 colon it was 0.328 µM; with OVCAR-4 ovarian it was 0.269 µM; in the assay on MOLT-4 leukemia, 21.1 µM; in the assay with SK-MEL-5 melanoma, 0.0562 µM; in the assay on HCT-116 colon it was 1.52 µM. For the same compound, the TGI with RXF 393 renal was determined as 0.398 µM; in the assay with MALME-3M melanoma it was 0.33 µM; with UO-31 renal it was 4.18 µM; with A498 renal it was 0.521 µM.
As for `CC(O)C(NC(=O)C(CS)NC(=O)C(CO)NC(=O)C(CCCCN)NC(=O)C(Cc1c[nH]c2ccccc12)NC(=O)C(Cc1ccc(O)cc1)NC(=O)C(CS)NC(=O)C(N)Cc1ccccc1)C(N)=O` (stereo not drawn), the GI50 was 29.7 µM in the assay with SR leukemia, 26.6 µM with OVCAR-4 ovarian, 32.9 µM in the assay with HCT-116 colon and 14.5 µM in the assay on RXF 393 renal. Also, the TGI with SR leukemia was > 25 µM and 86.5 µM; in the assay on HCC-2998 colon, > 25 µM and 57.7 µM; in the assay with OVCAR-4 ovarian, > 25 µM and 94.8 µM; in the assay on MOLT-4 leukemia it was > 25 µM and 67.4 µM; in the assay on SK-MEL-5 melanoma, > 25 µM; with HCT-116 colon, > 100 µM. The TGI with RXF 393 renal was > 25 µM and 36.6 µM; in the assay with MALME-3M melanoma it was > 25 µM; in the assay on UO-31 renal it was > 25 µM; in the assay on A498 renal, > 25 µM and 61.7 µM.
`COc1ccc([N+](=O)[O-])c2c(NCC(O)CO)ccnc12` (stereo not drawn): the TGI is > 100 µM in the assay on SR leukemia; > 100 µM in the assay on HCC-2998 colon; 45.7 µM in the assay on OVCAR-4 ovarian; > 100 µM with MOLT-4 leukemia; 60.8 µM in the assay on SK-MEL-5 melanoma; > 100 µM in the assay with HCT-116 colon. In addition, the TGI is > 100 µM with RXF 393 renal, 44.7 µM with MALME-3M melanoma, > 100 µM with UO-31 renal and 76.9 µM with A498 renal.
Turning to `CCC(=O)N1C/C(=C/c2ccc(OC)cc2)C(=O)/C(=C/c2ccc(OC)cc2)C1`, the GI50 in the assay on SR leukemia was 0.382 µM; in the assay on HCC-2998 colon, 1.93 µM; in the assay on OVCAR-4 ovarian, 3.37 µM; in the assay with MOLT-4 leukemia it was 3.31 µM; in the assay on SK-MEL-5 melanoma it was 1.62 µM; with HCT-116 colon, 0.263 µM. Moreover, the GI50 in the assay on RXF 393 renal is 1.72 µM; with MALME-3M melanoma, 2.47 µM; in the assay with UO-31 renal it was 1.34 µM; in the assay on A498 renal, 1.92 µM. Also, the TGI in the assay with SR leukemia is > 100 µM; in the assay with HCC-2998 colon, 3.42 µM; in the assay on OVCAR-4 ovarian, > 100 µM; with MOLT-4 leukemia, > 100 µM; in the assay on SK-MEL-5 melanoma it was 3.04 µM; with HCT-116 colon it was 0.646 µM. For the same compound, the TGI in the assay on RXF 393 renal worked out at 3.17 µM; in the assay on MALME-3M melanoma, 6.26 µM; in the assay with UO-31 renal it was 2.71 µM; in the assay on A498 renal it was 3.51 µM.
Consider `OC1CCC(Oc2cccc3cnc(Nc4ccc5nc[nH]c5c4)nc23)CC1` (stereo not drawn), for which the GI50 was 0.143 µM with SR leukemia; 0.708 µM in the assay with HCC-2998 colon; 1.06 µM in the assay on OVCAR-4 ovarian; 0.157 µM with MOLT-4 leukemia; 0.47 µM with SK-MEL-5 melanoma; 0.191 µM in the assay on HCT-116 colon. The GI50 is 0.208 µM in the assay with RXF 393 renal, 1.03 µM in the assay with MALME-3M melanoma, 0.227 µM with UO-31 renal and 0.335 µM in the assay on A498 renal. Moreover, the TGI in the assay on SR leukemia worked out at 0.671 µM; in the assay with HCC-2998 colon, 9.09 µM; with OVCAR-4 ovarian, 16 µM; in the assay with MOLT-4 leukemia, 0.636 µM; in the assay on SK-MEL-5 melanoma, 6.51 µM; with HCT-116 colon it was 12 µM. In addition, the TGI was found to be 0.504 µM in the assay on RXF 393 renal, 5.01 µM in the assay on MALME-3M melanoma, 1.88 µM in the assay with UO-31 renal and 0.866 µM with A498 renal.
For the compound `Nc1ccc2c(c1)[O][Sn]([c]1ccccc1)([c]1ccccc1)[O]C2=O`, the GI50 is 3.01 µM in the assay on SR leukemia; 17.8 µM in the assay on HCC-2998 colon; 12.9 µM in the assay on OVCAR-4 ovarian; 5.01 µM in the assay on MOLT-4 leukemia; 11.6 µM in the assay with SK-MEL-5 melanoma; 7.97 µM in the assay with HCT-116 colon. The GI50 was 2.06 µM in the assay with RXF 393 renal, 3.18 µM in the assay with MALME-3M melanoma, 12.5 µM with UO-31 renal and 18 µM in the assay on A498 renal. In addition, the TGI is > 30.4 µM in the assay on SR leukemia; 33.2 µM in the assay on HCC-2998 colon; 28.4 µM in the assay on OVCAR-4 ovarian; 29.7 µM in the assay with MOLT-4 leukemia; 25 µM in the assay on SK-MEL-5 melanoma; 15.7 µM in the assay on HCT-116 colon. Moreover, the TGI with RXF 393 renal was determined as 6.09 µM; in the assay with MALME-3M melanoma, 8.22 µM; with UO-31 renal it was 26 µM; with A498 renal, 31.9 µM.
On to `Cn1cnc([N+](=O)[O-])c1Sc1ncnc2nc[nH]c12`, for which the GI50 with SR leukemia is 37.9 µM and 4.04 µM; in the assay on HCC-2998 colon it was 5.64 µM; with OVCAR-4 ovarian, 3.38 µM and 10.2 µM; in the assay with MOLT-4 leukemia, 8.77 µM and 6.68 µM; with SK-MEL-5 melanoma, 12.1 µM and 14.4 µM; with HCT-116 colon, 3.62 µM and 23.4 µM. For the same compound, the GI50 with RXF 393 renal is 35.2 µM; in the assay with MALME-3M melanoma it was 4.22 µM and 34.9 µM; with UO-31 renal it was 2.39 µM and 14.8 µM; in the assay on A498 renal, 8.55 µM and 26.1 µM. The TGI with SR leukemia, in the assay with HCC-2998 colon, with OVCAR-4 ovarian, in the assay on MOLT-4 leukemia, with SK-MEL-5 melanoma and with HCT-116 colon was > 100 µM in each case. Moreover, the TGI was > 100 µM with RXF 393 renal; > 100 µM in the assay on MALME-3M melanoma; > 100 µM in the assay on UO-31 renal; 82 µM and > 100 µM with A498 renal.

The values are drawn from PubChem BioAssay (NCI).
